Test results taken from ChEMBL document CHEMBL5584322, “Nonpeptidic Irreversible Inhibitors of SARS-CoV-2 Main Protease with Potent Antiviral Activity” (J Med Chem, 2024).
Calls of active or inactive are those of the source. The rule behind the calls is not given here.

Legend:
[1] = target: T1, Replicase polyprotein 1ab (Severe acute respiratory syndrome coronavirus 2, UniProt P0DTD1); experiment: Inhibition of full-length SARS CoV-2 MPro expressed in Escherichia coli BL21(DE3) using Boc-Abu-Tle-Leu-Gln-AMC as substrate incubated for 10 mins by fluorescence based assay
[2] = target: Replicase polyprotein 1ab (Severe acute respiratory syndrome coronavirus 2) (UniProt P0DTD1); experiment: Inhibition of His-tagged recombinant SARS CoV-2 MPro expressed in Escherichia coli BL21(DE3) using Boc-Abu-Tle-Leu-Gln-AMC as substrate at 1 uM incubated for >6 hrs by fluorescence based assay relative to control
[3] = Stability of compound in 1 mM GSH assessed as compound remaining at 10 to 100 uM incubated for 1 hr by HPLC-ESI-MS analysis; format: ADME; conditions: 1 mM GSH solution, dose 10-100 µM, read-out: Stability
[4] = Stability of compound in 1 mM GSH at 10 uM incubated for 1 hr by HPLC-ESI-MS analysis; format: ADME
[5] = Stability of compound in 1 mM GSH at 100 uM incubated for 1 hr by HPLC-ESI-MS analysis; format: ADME
[6] = test system: Severe acute respiratory syndrome-related coronavirus; experiment: Inhibition of SARS CoV-1 MPro using Boc-Abu-Tle-Leu-Gln-AMC as substrate incubated for 10 mins by fluorescence based assay
[7] = test system: Calu-3; experiment: Cytotoxicity against human Calu-3 cells at 10 uM; format: toxicity, cell-based; conditions: calu-3, 10 µM
[8] = test system: SARS-CoV-2; experiment: microbe, parasite or virus in culture; conditions: Severe acute respiratory syndrome coronavirus 2, Calu-3
[9] = Inhibition of MERS CoV MPro using Boc-Abu-Tle-Leu-Gln-AMC as substrate incubated for 10 mins by fluorescence based assay; parameters: species or system Middle East respiratory syndrome-related coronavirus
[10] = Stability of compound in 1 mM GSH assessed as compound remaining at 100 uM incubated for 1 hr by HPLC-ESI-MS analysis; format: ADME; conditions: 1 mM GSH solution, read-out: Stability
[11] = target: Replicase polyprotein 1ab (Severe acute respiratory syndrome coronavirus 2) (UniProt P0DTD1); experiment: Inhibition of His-tagged recombinant SARS CoV-2 MPro expressed in Escherichia coli BL21(DE3) using Boc-Abu-Tle-Leu-Gln-AMC as substrate at 1 uM incubated for shorter period by fluorescence based assay relative to control
[12] = target: Replicase polyprotein 1ab (Severe acute respiratory syndrome coronavirus 2) (UniProt P0DTD1); experiment: Inhibition of full-length SARS CoV-2 MPro expressed in Escherichia coli BL21(DE3) using Boc-Abu-Tle-Leu-Gln-AMC as substrate at 1 uM incubated for 10 mins by fluorescence based assay relative to control
[13] = test system: Calu-3; experiment: (§1) Cytotoxicity against human Calu-3 cells; format: toxicity, cell-based; conditions: calu-3, 10 µM, dose 10 µM
[14] = as §1; format: toxicity, cell-based; conditions: Calu-3 cells
[15] = target: T1, Replicase polyprotein 1ab; experiment: Inhibition of SARS CoV-2 MPro

COc1cccc(C(=O)Oc2cncc(Br)c2)c1
IC50 [1]: 19.9 nM

O=C(Oc1cncc(Cl)c1)c1cccc(Cl)c1
IC50 [1]: 55.1 nM

Cc1cc(Cl)ccc1C(=O)Oc1cncc(Cl)c1
IC50 [1]: 3400 nM

COc1cccc(C(=O)Oc2cncc(Br)c2)c1OC
IC50 [1]: 78.2 nM
inhibition [2]: 100%

CCOc1ccc(C(=O)Oc2cncc(Cl)c2)cc1
IC50 [1]: 329 nM
remaining at 1 h, up to 100 µM [3]: 50%

O=C(Oc1cncc(Br)c1)c1ccccc1F
IC50 [1]: 10.7 nM

CC(C)(C)[C@H](NC(=O)C(F)(F)F)C(=O)N1C[C@H]2[C@@H]([C@H]1C(=O)N[C@H](C#N)C[C@@H]1CCNC1=O)C2(C)C
Stability [4]: Stable
Stability [5]: Stable

N#Cc1ccc(C(=O)Oc2cncc(Cl)c2)c(F)c1
IC50 [1]: 47 nM

O=C(Oc1cncc(Cl)c1)c1ccc(F)cc1
IC50 [1]: 119 nM

O=C(Oc1cncc(Cl)c1)c1ccccc1Cl
IC50 [1]: 60.4 nM

COc1ccc(C(=O)Oc2cncc(Cl)c2)cc1
inhibition [6]: inactive
IC50 [1]: 164 nM
Activity [7]: Non-Toxic
inhibition [2]: 100%
EC50 [8]: 10.8 nM
remaining at 1 h, up to 100 µM [3]: 50%
Stability [5]: Stable

O=C(Oc1cncc(Br)c1)c1ccccc1Cl
IC50 [1]: 39.2 nM

O=C(Oc1cncc(Cl)c1)c1ccc(-c2cccnc2)cc1
IC50 [1]: 137 nM

O=C(Oc1cncc(Cl)c1)c1cc(F)cc(F)c1
IC50 [1]: 38.3 nM

O=C(Oc1cncc(Cl)c1)c1cccc(F)c1
IC50 [1]: 46.4 nM

O=C(Oc1cncc(Cl)c1)c1ccccc1
IC50 [1]: 40.4 nM

COc1cccc(C(=O)Oc2cncc(Cl)c2)c1
inhibition [6]: Active
IC50 [1]: 5.13 nM
Stability [4]: Unstable
IC50 [9]: 112 nM

O=C(Oc1cncc(Cl)c1)c1cccc2[nH]ccc12
Stability [4]: Stable
remaining at 1 h, 100 µM [10]: > 70%

O=C(Oc1cncc(Cl)c1)c1ccccc1F
inhibition [6]: Active
IC50 [1]: 25.9 nM

O=C(Oc1cncc(Br)c1)c1ccc(Cl)c(Cl)c1
IC50 [1]: 37.5 nM

O=C(Oc1cncc(Br)c1)c1cccc(Cl)c1
IC50 [1]: 50.5 nM

CNc1ccc(C(=O)Oc2cncc(Cl)c2)cc1
IC50 [1]: 3940 nM
remaining at 1 h, up to 100 µM [3]: 50%
Stability [5]: Stable

O=C(Oc1cncc(Cl)c1)c1ccc(Cl)cc1Cl
inhibition [6]: Active
IC50 [1]: 108 nM
inhibition [11]: 100%

CCCCCCCOc1ccc(C(=O)Oc2cncc(Cl)c2)cc1
IC50 [1]: > 1000 nM
inhibition [12]: 8%
remaining at 1 h, up to 100 µM [3]: 50%
Stability [5]: Stable

O=C(Oc1cncc(Br)c1)c1ccc(Cl)cc1F
IC50 [1]: 35.6 nM
inhibition [11]: 100%

O=C(Oc1cncc(Cl)c1)c1ccc(Cl)cc1
IC50 [1]: 218 nM

COc1c(Cl)ccc(C(=O)Oc2cncc(Cl)c2)c1F
IC50 [1]: 70.7 nM

O=C(Oc1cncc(Cl)c1)c1ccc(-c2ccccc2)cc1
inhibition [6]: inactive
IC50 [1]: 150 nM
Activity [13]: Dose-Dependent Effect
CC50 [14]: 14700 nM
EC50 [8]: 58.7 nM
remaining at 1 h, up to 100 µM [3]: 50%
Stability [5]: Stable

O=C(Oc1cncc(Cl)c1)c1cccc(-c2ccccc2)c1
IC50 [1]: 117 nM
Stability [4]: Unstable
Stability [5]: Stable

O=C(Oc1cncc(Cl)c1)c1cccs1
Ki [15]: 81.1 nM

O=C(Oc1cncc(Br)c1)c1ccc(I)cc1F
IC50 [1]: 33.5 nM
Stability [5]: Stable

COc1cccc(C(=O)Oc2cncc(Cl)c2)c1OC
inhibition [6]: Active
IC50 [1]: 84.5 nM
inhibition [2]: 100%

O=C(Oc1cncc(Br)c1)c1ccc(Cl)cc1Cl
IC50 [1]: 84.5 nM
inhibition [11]: 100%

N=C(N)Nc1ccc(C(=O)Oc2cncc(Cl)c2)cc1
IC50 [1]: 65.9 nM

O=C(Oc1cncc(Cl)c1)c1ccc(I)cc1F
inhibition [6]: inactive
IC50 [1]: 14.9 nM

O=C(Oc1cncc(Cl)c1)c1cccc(Cl)c1Cl
inhibition [6]: Active
IC50 [1]: 126 nM

COc1ccc(C(=O)Oc2cncc(Cl)c2)c(OC)c1
IC50 [1]: 1670 nM
Stability [5]: Stable

CCOc1ccc(C(=O)Oc2cncc(Cl)c2)c(F)c1
inhibition [6]: inactive
IC50 [1]: 47.4 nM
Activity [7]: Non-Toxic
inhibition [2]: 100%
EC50 [8]: 2.68 nM

O=C(Oc1cncc(Cl)c1)c1ccc(I)cc1
inhibition [6]: inactive
IC50 [1]: 91.2 nM
Stability [4]: Unstable

O=C(Oc1cncc(Cl)c1)c1cc2cc(Cl)ccc2[nH]1
Stability [4]: Unstable
remaining at 1 h, 100 µM [10]: > 70%

CCOc1ccc(C(=O)Oc2cncc(Br)c2)c(F)c1
IC50 [1]: 107 nM
Stability [4]: Unstable
inhibition [2]: 100%

O=C(Oc1cncc(Cl)c1)c1cccnc1
IC50 [1]: 758 nM

O=C(Oc1cncc(Cl)c1)c1ccc(Br)cc1F
inhibition [6]: inactive
IC50 [1]: 34.9 nM

COc1ccccc1C(=O)Oc1cncc(Cl)c1
inhibition [6]: inactive
IC50 [1]: 264 nM

O=C(Oc1cncc(Cl)c1)c1c(F)cccc1F
inhibition [6]: inactive
IC50 [1]: 29.2 nM

O=C(Oc1cncc(Br)c1)c1ccc(Cl)cc1
IC50 [1]: 95.7 nM

O=C(Oc1cncc(Br)c1)c1ccccc1
IC50 [1]: 40.5 nM

O=C(Oc1cncc(Cl)c1)c1ccccc1-c1ccccc1
IC50 [1]: > 1000 nM
inhibition [12]: 6%
Stability [4]: Unstable
Stability [5]: Stable

Nc1ccc(C(=O)Oc2cncc(Cl)c2)c(F)c1
IC50 [1]: 943 nM
Stability [5]: Stable

COc1cc(F)ccc1C(=O)Oc1cncc(Cl)c1
IC50 [1]: 249 nM

COc1ccc(F)c(C(=O)Oc2cncc(Cl)c2)c1F
IC50 [1]: 30.3 nM

O=C(Oc1cncc(Cl)c1)c1ccncc1
IC50 [1]: 725 nM

O=C(Oc1cncc(Br)c1)c1ccc(OCc2ccccc2)cc1F
IC50 [1]: 232 nM
inhibition [2]: 100%

O=C(Oc1cncc(Cl)c1)c1ccc(Cl)c(Cl)c1
inhibition [6]: Active
IC50 [1]: 96.4 nM

O=C(Oc1cncc(Cl)c1)c1cc(Cl)cc(Cl)c1
IC50 [1]: 133 nM

COc1ccc(C(=O)Oc2cncc(Br)c2)cc1
IC50 [1]: 96.3 nM
Activity [7]: Non-Toxic
inhibition [2]: 100%
EC50 [8]: 1860 nM
Stability [5]: Stable

O=C(Oc1cncc(Cl)c1)c1ccc(Cl)cc1F
inhibition [6]: inactive
IC50 [1]: 45.7 nM
inhibition [11]: 100%

O=C(Oc1cncc(Cl)c1)c1ccc(OCc2ccccc2)cc1F
inhibition [6]: inactive
IC50 [1]: 322 nM
Stability [4]: Unstable
inhibition [2]: 100%
Stability [5]: Stable

COc1ccc(C(=O)Oc2cncc(Cl)c2)cc1Cl
IC50 [1]: 247 nM
Stability [4]: Unstable
Stability [5]: Stable
